Our source for the IC50 values is patent US20110212120A1, “Ykur polynucleotides and polypeptides” (VERNALIS (OXFORD) LIMITED, priority 2002, published 2011).

The target of the test is T1, YkuR protein (Bacillus subtilis, UniProt O34916).
T1 construct: the full length ykuR gene product could be separated from internally digested gene product; made in house; host or cells: E. coli BL21 (pET24a)
The experiment in a line: YkuR surrogate fluorometric assay (sodium hippurate substrate). Format: biochemical, B. subtilis. The note with it: purified YkuR protein expressed in E. coli; phenanthroline added at increasing concentrations; FIG. 3. Here is the method:
A fluorometric assay for YkuR and its homologues has been developed using sodium hippurate (benzoyl glycine) as a substrate. Cleavage by YkuR releases free glycine which can be detected using F-phthaldialdehyde. The assay is performed in a total volume of 100 Fl per well in black 96 well microtitre plates. 40 Fl of YkuR protein 20 Fg/ml in 10 mM Hepes pH 6.8 containing 0.5 mM dithiothreitol and 10 mM potassium chloride) is added to the appropriate wells of a 96-well plate. Appropriate concentrations of test compounds dissolved in 20 Fl of 100% DMSO are added, followed by 40 Fl of hippuric acid (250 mM in 50 mM Hepes pH 6.8 containing 0.05% Brij 35). Control wells lack either enzyme or test compound. The reactions are incubated for 1 hour at 37 EC. Following incubation 100 Fl of OPA Reagent (20 mM F-phthaldialdehyde in 50 mM borate buffer pH 9.5 containing 0.1% $-mercaptoethanol) is added to each well. The fluorescence at 460 nm is measure with an SLT Fluostar fluorometer using 355 nm excitation.
Assay using purified YkuR protein expressed in E. coli as described above. Phenanthroline, a known inhibitor of metalloprotease enzyme activity, was added at increasing concentrations to inhibit metalloenzyme activity.

T1 sequence (O34916 whole entry): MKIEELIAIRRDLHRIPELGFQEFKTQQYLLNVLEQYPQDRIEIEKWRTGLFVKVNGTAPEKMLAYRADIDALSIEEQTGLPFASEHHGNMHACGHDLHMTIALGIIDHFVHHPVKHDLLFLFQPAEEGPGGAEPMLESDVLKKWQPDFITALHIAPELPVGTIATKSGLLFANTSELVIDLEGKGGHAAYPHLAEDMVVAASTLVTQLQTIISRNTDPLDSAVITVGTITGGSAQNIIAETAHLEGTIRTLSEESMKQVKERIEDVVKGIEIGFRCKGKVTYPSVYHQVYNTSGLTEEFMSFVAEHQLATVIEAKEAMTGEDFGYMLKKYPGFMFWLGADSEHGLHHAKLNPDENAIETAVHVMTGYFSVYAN

By IC50 is commonly meant the concentration at which inhibition is half-maximal. The low end stands for greater potency, the high end for weaker potency. Turning to `c1cnc2c(c1)ccc1cccnc12` [Phenanthroline], the IC50 is 96 µM.
